Test results as given in US8728515B2, “Adjuvants for use in vaccination” (Bangor University, priority 2008, dated 2014).

Columns and labels:
[1] = tested on: airway CD11c+ cells; test: Gene transcription profiling of airway CD11c+ cells (RT-qPCR on broncho-alveolar lavage cells after intratracheal liposomes); format: in vivo, mouse; details: liposomes intratracheally, after 48 hours
Description: (§1) Female C57BL/6J mice were purchased from Janvier and housed under specific pathogen free conditions in individually ventilated cages and fed ad libitum. Mice were 8-12 weeks old at the start of experiments.
(§2) Briefly, the compounds were mixed with phosphatidylcholine (Sigma) in chloroform. The chloroform was evaporated and the lipids recovered in sterile saline. After ultrasound sonication and vortexing, samples of 25 μg mycolic acids/100 μl/mouse were administered intratracheally. A liposome control was prepared similarly, but without the addition of any mycolic acid compound.
Airway CD11c^+ cells include alveolar macrophages and dendritic cells, which are professional phagocytes and the most important cell types in the early recognition of non-self threats to the airways. Next to mounting an immediate appropriate innate immune response to these threats, CD11c^+ cells alert and instruct adaptive immune responses by means of 3 different signals: antigen-presentation, surface expression of T-cell co-stimulatory molecules and secretion of instruction cytokines. Whereas dendritic cells migrate to the draining lymph nodes in order to initiate a peripheral antigen-specific immune response, alveolar macrophages remain in the airways to further control local inflammation, but also to locally attract and orchestrate the acquired immune response by lymphocytes.
In order for a locally applied vaccine to be effective, safe adjuvants that give the appropriate signal to CD11c^+ cells are needed to both increase the immunogenicity of the vaccine and direct the type of the acquired immune response. […] After 48 hours, the mice were sacrificed and broncho-alveolar lavage performed to measure the CD11c^+-cell gene transcription by RT-qPCR.

[2] = tested on: C57BL/6 mice; test: Inflammatory cell infiltration to the airways and lung tissue damage after intratracheal mycolic acid liposomes; format: in vivo; details: liposomes intratracheally, 25 μg mycolic acids/100 μl/mouse, after 48 hours
Description: as §1, §2
In order to be considered safe for human administration, compounds should preferably cause as little local inflammation or resulting tissue changes as possible.
After 48 hours, mice were sacrificed and a broncho-alveolar lavage (BAL) was performed to measure the airway cell types and numbers by flowcytometry. Increased cell numbers and the appearance of granulocytes (mainly neutrophils) in the BAL-fluid are indicative for cell recruitment to the airways as result of an inflammatory reaction.
Lavaged lungs were ectomised to allow for histo-pathological examination of the lung tissue. A haematoxylin and eosin staining of the paraffin lung sections was followed by a thorough examination by a skilled pathologist who scored the sections according to the following criteria in a double-blinded manner: […]

## CCCCCCCCCCCCCCCCCCCCCCCC[C@@H](C(=O)O)[C@H](O)CCCCCCCCCCCCCCC[C@@H]1C[C@@H]1CCCCCCCCCCCCCCCCCCC(=O)[C@@H](C)CCCCCCCCCCCCCCCCCC (single isomer, unassigned) [Example 3]
other
  melting point: 66 to 68 °C

## CCCCCCCCCCCCCCCCCCCCCCCC[C@@H](C(=O)O)[C@H](O)CCCCCCCCCCCCCCCCC[C@@H]1CC1CCCCCCCCCCCCCCCC[C@@H](OC)[C@@H](C)CCCCCCCCCCCCCCCCCC (some centres unmarked) [Compound 6]
[1]; alveolar macrophages
  type of macrophage activation (iNOS = classical, Fizz1 = alternative marker): mixed type of activation
[1]
  KC (CXCL1) expression: increased
  MCP-1 (CCL2) expression: enhance MCP-1 expression even to a greater extend than crude-MA
  expression of IL-12p40: strongly stimulate
  induction of expression of IL-10: maintained
[1]; compared with crude-MA
  expression of the inflammatory cytokines TNF-alpha and IL-6: less pronounced or absent

## CCCCCCCCCCCCCCCCCCCCCCCC[C@@H](C(=O)O)[C@H](O)CCCCCCCCCCCCCCCC[C@H]1C[C@@H]1[C@@H](C)CCCCCCCCCCCCCCCCCCC(=O)C(C)CCCCCCCCCCCCCCCCCC (some centres unmarked) [Compound 4]
[2]
  lung tissue changes (histo-pathological examination of lung sections): did not cause any significant lung tissue changes
